Test results taken from US12077503B2, “Substituted cyclic amides and their use as herbicides” (FMC CORPORATION, priority 2015, dated 2024).

Experiments:
Type in all cases: in vivo
[1] = test system: redroot pigweed (Amaranthus retroflexus); experiment: Test G Pre-Emergence Protocol; details: Amaranthus retroflexus, pre-emergence, 312 h, evaluated after 13 days; for pest or weed control at 15.625 g/ha: 15.625 g ai/ha; for pest or weed control at 15.625 g/ha / pest or weed control at 250 g/ha: read-out: Pigweed, Redroot damage rating (100=total damage to plant; 0=no damage to plant); for pest or weed control at 62.5 g/ha: 62.5 g ai/ha, 100=total damage to plant, 0=no damage to plant, read-out: plant damage rating, Pigweed, Redroot; for pest or weed control at 250 g/ha: 250 g ai/ha
How it was run: (§1)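 One day after sowing, pots are treated with a spray of test compound formulated in acetone/water 50:50 plus 0.5% Tween 20, giving 15.625, 62.5 or 250 g/ha. Evaluation on a 0–100 damage scale follows 13 days of glasshouse growth.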

[2] = test system: barnyardgrass (Echinochloa crus-galli); experiment: Test G Pre-Emergence Protocol; details: Echinochloa crus-galli, pre-emergence, 312 h, evaluated after 13 days; for pest or weed control at 15.625 g/ha: 15.625 g ai/ha, read-out: Barnyard grass damage rating (100=total damage to plant; 0=no damage to plant); for pest or weed control at 62.5 g/ha: 62.5 g ai/ha, 100=total damage to plant, 0=no damage to plant, read-out: plant damage rating, Barnyardgrass; for pest or weed control at 250 g/ha: 250 g ai/ha, read-out: Barnyardgrass damage rating (100=total damage to plant; 0=no damage to plant)
How it was run: as §1

[3] = test system: velvetleaf (Abutilon theophrasti); experiment: Test G Pre-Emergence Protocol; details: Abutilon theophrasti, pre-emergence, 312 h, evaluated after 13 days; for pest or weed control at 15.625 g/ha: 15.625 g ai/ha; for pest or weed control at 15.625 g/ha / pest or weed control at 250 g/ha: read-out: Velvetleaf damage rating (100=total damage to plant; 0=no damage to plant); for pest or weed control at 62.5 g/ha: 62.5 g ai/ha, 100=total damage to plant, 0=no damage to plant, read-out: plant damage rating, Velvetleaf; for pest or weed control at 250 g/ha: 250 g ai/ha
How it was run: as §1

[4] = test system: ivy-leaved morning glory (Ipomoea hederacea); experiment: Test G Pre-Emergence Protocol; details: Ipomoea, pre-emergence, 312 h, evaluated after 13 days; for pest or weed control at 15.625 g/ha: 15.625 g ai/ha, read-out: Morning-glory, Ivy-leaved damage rating (100=total damage to plant; 0=no damage to plant); for pest or weed control at 62.5 g/ha: 62.5 g ai/ha, 100=total damage to plant, 0=no damage to plant, read-out: plant damage rating, Morningglory, Ivy-leaved; for pest or weed control at 250 g/ha: 250 g ai/ha, read-out: Morningglory, Ivy-leaved damage rating (100=total damage to plant; 0=no damage to plant)
How it was run: as §1

[5] = test system: giant foxtail (Setaria faberi); experiment: Test G Pre-Emergence Protocol; details: Setaria faberi, pre-emergence, 312 h, evaluated after 13 days; for pest or weed control at 15.625 g/ha: 15.625 g ai/ha; for pest or weed control at 15.625 g/ha / pest or weed control at 250 g/ha: read-out: Foxtail, Giant damage rating (100=total damage to plant; 0=no damage to plant); for pest or weed control at 62.5 g/ha: 62.5 g ai/ha, 100=total damage to plant, 0=no damage to plant, read-out: plant damage rating, Foxtail, Giant; for pest or weed control at 250 g/ha: 250 g ai/ha
How it was run: as §1

corn (Zea mays) [6] = experiment: Test G Pre-Emergence Protocol; details: Zea mays, pre-emergence, 312 h, evaluated after 13 days; for plant injury at 15.625 g/ha: 15.625 g ai/ha; for plant injury at 15.625 g/ha / plant injury at 250 g/ha: read-out: Corn damage rating (100=total damage to plant; 0=no damage to plant); for plant injury at 62.5 g/ha: 62.5 g ai/ha, 100=total damage to plant, 0=no damage to plant, read-out: plant damage rating, Corn; for plant injury at 250 g/ha: 250 g ai/ha
How it was run: as §1

[7] = test system: redroot pigweed (Amaranthus retroflexus); experiment: Test G Post-Emergence Protocol; details: Amaranthus retroflexus, post-emergence, 312 h; for pest or weed control at 15.625 g/ha: 15.625 g ai/ha, evaluated after 13 days (100=total damage to plant; 0=no damage to plant), read-out: Pigweed, Redroot damage rating; for pest or weed control at 62.5 g/ha: 62.5 g ai/ha, read-out: Pigweed, Redroot damage rating (100=total damage to plant; 0=no damage to plant); for pest or weed control at 62.5 g/ha / pest or weed control at 250 g/ha: evaluated after 13 days; for pest or weed control at 250 g/ha: 250 g ai/ha, read-out: damage to plant, Pigweed, Redroot (100=total damage to plant; 0=no damage to plant)
How it was run: (§2)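 Sow in soil; grow 8 d (24/16 °C, 14 h light, 65% humidity); spray 15.625/62.5/250 g/ha in acetone:water 50:50 + 0.5% Tween 20; grow on, water twice daily; score damage 0–100 at 13 d.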

[8] = test system: barnyardgrass (Echinochloa crus-galli); experiment: Test G Post-Emergence Protocol; details: Echinochloa crus-galli, post-emergence, 312 h; for pest or weed control at 15.625 g/ha: 15.625 g ai/ha, evaluated after 13 days (100=total damage to plant; 0=no damage to plant), read-out: Barnyardgrass damage rating; for pest or weed control at 62.5 g/ha: 62.5 g ai/ha, read-out: Barnyardgrass damage rating (100=total damage to plant; 0=no damage to plant); for pest or weed control at 62.5 g/ha / pest or weed control at 250 g/ha: evaluated after 13 days; for pest or weed control at 250 g/ha: 250 g ai/ha, read-out: damage to plant, Barnyardgrass (100=total damage to plant; 0=no damage to plant)
How it was run: as §2

[9] = test system: velvetleaf (Abutilon theophrasti); experiment: Test G Post-Emergence Protocol; details: Abutilon theophrasti, post-emergence, 312 h; for pest or weed control at 15.625 g/ha: 15.625 g ai/ha, evaluated after 13 days (100=total damage to plant; 0=no damage to plant), read-out: Velvetleaf damage rating; for pest or weed control at 62.5 g/ha: 62.5 g ai/ha, read-out: Velvetleaf damage rating (100=total damage to plant; 0=no damage to plant); for pest or weed control at 62.5 g/ha / pest or weed control at 250 g/ha: evaluated after 13 days; for pest or weed control at 250 g/ha: 250 g ai/ha, read-out: damage to plant, Velvetleaf (100=total damage to plant; 0=no damage to plant)
How it was run: as §2

[10] = test system: ivy-leaved morning glory (Ipomoea hederacea); experiment: Test G Post-Emergence Protocol; details: Ipomoea, post-emergence, 312 h; for pest or weed control at 15.625 g/ha: 15.625 g ai/ha, evaluated after 13 days (100=total damage to plant; 0=no damage to plant), read-out: Morningglory, Ivy-leaved damage rating; for pest or weed control at 62.5 g/ha: 62.5 g ai/ha, read-out: Morningglory, Ivy-leaved damage rating (100=total damage to plant; 0=no damage to plant); for pest or weed control at 62.5 g/ha / pest or weed control at 250 g/ha: evaluated after 13 days; for pest or weed control at 250 g/ha: 250 g ai/ha, read-out: damage to plant, Morningglory, Ivy-leaved (100=total damage to plant; 0=no damage to plant)
How it was run: as §2

[11] = test system: giant foxtail (Setaria faberi); experiment: Test G Post-Emergence Protocol; details: Setaria faberi, post-emergence, 312 h; for pest or weed control at 15.625 g/ha: 15.625 g ai/ha, evaluated after 13 days (100=total damage to plant; 0=no damage to plant), read-out: Foxtail, Giant damage rating; for pest or weed control at 62.5 g/ha: 62.5 g ai/ha, read-out: Foxtail, Giant damage rating (100=total damage to plant; 0=no damage to plant); for pest or weed control at 62.5 g/ha / pest or weed control at 250 g/ha: evaluated after 13 days; for pest or weed control at 250 g/ha: 250 g ai/ha, read-out: damage to plant, Foxtail, Giant (100=total damage to plant; 0=no damage to plant)
How it was run: as §2

corn (Zea mays) [12] = experiment: Test G Post-Emergence Protocol; details: Zea mays, post-emergence, 312 h; for plant injury at 15.625 g/ha: 15.625 g ai/ha, evaluated after 13 days (100=total damage to plant; 0=no damage to plant), read-out: Corn damage rating; for plant injury at 62.5 g/ha: 62.5 g ai/ha, read-out: Corn damage rating (100=total damage to plant; 0=no damage to plant); for plant injury at 62.5 g/ha / plant injury at 250 g/ha: evaluated after 13 days; for plant injury at 250 g/ha: 250 g ai/ha, read-out: damage to plant, Corn (100=total damage to plant; 0=no damage to plant)
How it was run: as §2

SMILES	pest or weed control at 15.625 g/ha [1]	pest or weed control at 62.5 g/ha [1]	pest or weed control at 250 g/ha [1]	pest or weed control at 15.625 g/ha [2]	pest or weed control at 62.5 g/ha [2]	pest or weed control at 250 g/ha [2]	pest or weed control at 15.625 g/ha [3]	pest or weed control at 62.5 g/ha [3]	pest or weed control at 250 g/ha [3]	pest or weed control at 15.625 g/ha [4]	pest or weed control at 62.5 g/ha [4]	pest or weed control at 250 g/ha [4]	pest or weed control at 15.625 g/ha [5]	pest or weed control at 62.5 g/ha [5]	pest or weed control at 250 g/ha [5]	plant injury at 15.625 g/ha (corn (Zea mays) [6])	plant injury at 62.5 g/ha (corn (Zea mays) [6])	plant injury at 250 g/ha (corn (Zea mays) [6])	pest or weed control at 15.625 g/ha [7]	pest or weed control at 62.5 g/ha [7]	other results
Cc1ccc(NC(=O)[C@H]2C(=O)N(C)C[C@@H]2c2ccc(C(F)(F)F)cc2)c(C)c1C (racemic) [Compound 1448]	0%	0%	0%	0%	0%	0%	0%	0%	0%	0%	0%	0%	0%	20%	60%	0%	0%	0%	0%	0%	pest or weed control at 250 g/ha [7]: 30%; pest or weed control at 15.625 g/ha [8]: 0%; pest or weed control at 62.5 g/ha [8]: 0%; pest or weed control at 250 g/ha [8]: 0%; pest or weed control at 15.625 g/ha [9]: 0%; pest or weed control at 62.5 g/ha [9]: 0%; pest or weed control at 250 g/ha [9]: 0%; pest or weed control at 15.625 g/ha [10]: 0%; pest or weed control at 62.5 g/ha [10]: 0%; pest or weed control at 250 g/ha [10]: 0%; pest or weed control at 15.625 g/ha [11]: 0%; pest or weed control at 62.5 g/ha [11]: 0%; pest or weed control at 250 g/ha [11]: 0%; plant injury at 15.625 g/ha (corn (Zea mays) [12]): 0%; plant injury at 62.5 g/ha (corn (Zea mays) [12]): 0%; plant injury at 250 g/ha (corn (Zea mays) [12]): 10%
CN1C[C@H](c2ccc(C(F)(F)F)cc2)[C@@H](C(=O)Nc2ncc(F)cc2F)C1=O (racemic) [Compound 1452]	0%	0%	0%	0%	0%	50%	0%	0%	30%	0%	0%	0%	0%	0%	60%	0%	0%	0%	0%	0%	pest or weed control at 250 g/ha [7]: 10%; pest or weed control at 15.625 g/ha [8]: 0%; pest or weed control at 62.5 g/ha [8]: 0%; pest or weed control at 250 g/ha [8]: 0%; pest or weed control at 15.625 g/ha [9]: 0%; pest or weed control at 62.5 g/ha [9]: 0%; pest or weed control at 250 g/ha [9]: 10%; pest or weed control at 15.625 g/ha [10]: 0%; pest or weed control at 62.5 g/ha [10]: 10%; pest or weed control at 250 g/ha [10]: 10%; pest or weed control at 15.625 g/ha [11]: 0%; pest or weed control at 62.5 g/ha [11]: 0%; pest or weed control at 250 g/ha [11]: 10%; plant injury at 15.625 g/ha (corn (Zea mays) [12]): 0%; plant injury at 62.5 g/ha (corn (Zea mays) [12]): 0%; plant injury at 250 g/ha (corn (Zea mays) [12]): 0%
CN1C[C@H](c2ccc(C(F)F)cc2)[C@@H](C(=O)Nc2ccccc2F)C1=O (racemic) [Compound 1454]	0%	0%	70%	20%	60%	70%	0%	20%	60%	20%	10%	10%	50%	70%	90%	0%	10%	60%	0%	20%	pest or weed control at 250 g/ha [7]: 20%; pest or weed control at 15.625 g/ha [8]: 0%; pest or weed control at 62.5 g/ha [8]: 20%; pest or weed control at 250 g/ha [8]: 20%; pest or weed control at 15.625 g/ha [9]: 0%; pest or weed control at 62.5 g/ha [9]: 0%; pest or weed control at 250 g/ha [9]: 10%; pest or weed control at 15.625 g/ha [10]: 10%; pest or weed control at 62.5 g/ha [10]: 10%; pest or weed control at 250 g/ha [10]: 10%; pest or weed control at 15.625 g/ha [11]: 30%; pest or weed control at 62.5 g/ha [11]: 60%; pest or weed control at 250 g/ha [11]: 60%; plant injury at 15.625 g/ha (corn (Zea mays) [12]): 10%; plant injury at 62.5 g/ha (corn (Zea mays) [12]): 20%; plant injury at 250 g/ha (corn (Zea mays) [12]): 30%
